# Experimental data taken from US6630135B1, “Use of sustained release antibiotic compositions in ophthalmic surgical procedures” (Alcon Laboratories, Inc., priority 1993, dated 2003).
# Where two headings read alike, the source gives them in different places.
# What was measured:
# [1] = test system: Pseudomonas aeruginosa (i.e., Strain 4N3422); test: Minimum inhibitory concentration against Pseudomonas aeruginosa Strain 4N3422; type: cell-based
# Text: The concentration of antibiotic utilized in the compositions of the present invention will vary depending on the intended use of the compositions (i.e., sterilization of the surgical field or prevention of post-surgical infections), and the relative antimicrobial activity of the specific antibiotic selected. The antimicrobial activity of antibiotics is generally expressed as the minimum concentration required to inhibit the growth of a specified pathogen. The concentration is also referred to as the “minimum inhibitory concentration” or “MIC”. The term “MIC90” refers to the minimum concentration of antibiotic required to inhibit the growth of ninety percent (90%) of a population of multiple strains of a microorganism. The concentration of an antibiotic required to totally kill a specified population of bacteria or other pathogens is referred to as the “minimum bactericidal concentration” or “MBC”. The minimum inhibitory concentrations of some of the preferred antibiotics of the present invention, relative to a specific strain of Pseudomonas aeruginosa (i.e., Strain 4N3422), are presented in the following table: […]
# [2] = rabbits, subconjunctival injection; cited from earlier work
# Strep. pneumoniae = test: MIC90 against Strep. pneumoniae; type: cell-based
# Text: (§1) The concentration of antibiotic utilized in the compositions of the present invention will vary depending on the intended use of the compositions (i.e., sterilization of the surgical field or prevention of post-surgical infections), and the relative antimicrobial activity of the specific antibiotic selected. The antimicrobial activity of antibiotics is generally expressed as the minimum concentration required to inhibit the growth of a specified pathogen. The concentration is also referred to as the “minimum inhibitory concentration” or “MIC”. The term “MIC90” refers to the minimum concentration of antibiotic required to inhibit the growth of ninety percent (90%) of a population of multiple strains of a microorganism. The concentration of an antibiotic required to totally kill a specified population of bacteria or other pathogens is referred to as the “minimum bactericidal concentration” or “MBC”. The activity of antibiotics against Pseudomonas aeruginosa is particularly important in the present invention, because ophthalmic infections involving Pseudomonas aeruginosa represent an extremely serious condition which may ultimately result in the loss of the affected eye.
# Hemo. influenzae = test: MIC90 against Hemo. influenzae; type: cell-based
# Text: as §1
# P. aeruginosa = test: MIC90 against multiple strains of P. aeruginosa; type: cell-based
# Text: as §1
# Staph. aureus = test: MIC90 against multiple strains of Staph. aureus; type: cell-based
# Text: as §1
# Staph. epidermidis = test: MIC90 against Staph. epidermidis; type: cell-based
# Text: as §1
# [3] = Ocular tissue drug concentration after topical dosing of rabbit eyes (HPLC); type: in vivo; settings: New Zealand albino, 30 microliters, normal eyes, after 30 minutes
# Protocol: The following formulations were tested: The route of administration was topical. The rabbits received 30 microliters of either the gel or solution formulations in both eyes. At the end of the study, the aqueous humor and cornea were collected and assayed by high performance liquid chromatography to determine the amount of drug present.
# [4] = humans, one hour after administration, cited from earlier work
# [5] = Streptococcus pneumoniae, read-out: MIC 90
# [6] = Haemophilus influenzae, read-out: MIC 90
# [7] = Pseudomonas aeruginosa, read-out: MIC 90
# [8] = Staphylococcus aureus, read-out: MIC 90
# [9] = Staphylococcus epidermidis, read-out: MIC 90
compound,measurement,setting,value
CCN1CCN(C(=O)N[C@@H](C(=O)N[C@@H]2C(=O)N3[C@@H]2SC(C)(C)[C@@H]3C(=O)O)c2ccccc2)C(=O)C1=O [Piperacillin],MIC,[1]; read-out: MIC,< 8 µg/mL
NCC[C@H](O)C(=O)N[C@@H]1C[C@H](N)[C@@H](O[C@H]2O[C@H](CN)[C@@H](O)[C@H](O)[C@H]2O)[C@H](O)[C@H]1O[C@H]1O[C@H](CO)[C@@H](O)[C@H](N)[C@H]1O [Amikacin],MIC,[1]; read-out: MIC,8 µg/mL
C[C@@H](O)[C@H]1C(=O)N2C(C(=O)O)=C(SCCN=CN)C[C@H]12 [Imipenem],MIC,[1]; read-out: MIC,1 µg/mL
CC(C)(O/N=C(\C(=O)N[C@@H]1C(=O)N2C(C(=O)[O-])=C(C[n+]3ccccc3)CS[C@H]12)c1csc(N)n1)C(=O)O [Ceftazidime],MIC,[1]; read-out: MIC,1 µg/mL
Gentamicin,maximum concentration attained in the aqueous humor,[2],8.8 µg/g
same,MIC90,Strep. pneumoniae,50.0 µg/mL
same,MIC90,Hemo. influenzae,0.8 µg/mL
same,MIC90,P. aeruginosa,8.0 µg/mL
same,MIC90,Staph. aureus,12.5 µg/mL
same,MIC,[1],>8 µg/mL
same,MIC90,Staph. epidermidis,12.5 µg/mL
CC1(C)S[C@@H]2[C@H](NC(=O)[C@H](C(=O)O)c3ccsc3)C(=O)N2[C@H]1C(=O)O [Ticarcillin],MIC,[1]; read-out: MIC,32 µg/mL
O=C(O)c1cn(C2CC2)c2cc(N3CCNCC3)c(F)cc2c1=O [Ciprofloxacin],concentration at 30 min,"[3]; aqueous humor, read-out: drug levels in aqueous humor",280 ng/g
same,concentration at 30 min,"[3]; cornea, read-out: drug levels in cornea",10600 ng/g
same,maximum aqueous humor concentration,[4]; IV injection (200 mg),0.16 µg/mL
same,maximum aqueous humor concentration,[4]; oral dosage (1 g),0.33 µg/mL
same,MIC90,Strep. pneumoniae; [5],2 µg/mL
same,MIC90,Hemo. influenzae; [6],0.015 µg/mL
same,MIC90,P. aeruginosa; [7],0.5 µg/mL
same,MIC90,Staph. aureus; [8],0.5 µg/mL
same,MIC,[1]; read-out: MIC,< 0.125 µg/mL
same,MIC90,Staph. epidermidis; [9],0.4 µg/mL
CO[C@@]1(NC(=O)Cc2cccs2)C(=O)N2C(C(=O)O)=C(COC(N)=O)CS[C@@H]21 [Cefoxitin],MIC,[1]; read-out: MIC,> 32 µg/mL
CO/N=C(\C(=O)N[C@@H]1C(=O)N2C(C(=O)O)=C(COC(C)=O)CS[C@H]12)c1csc(N)n1 [Cefotaxime],MIC,[1]; read-out: MIC,32 µg/mL
CCn1cc(C(=O)O)c(=O)c2cc(F)c(N3CCNCC3)cc21 [Norfloxacin],MIC,[1]; read-out: MIC,< 0.5 µg/mL
NC[C@H]1O[C@H](O[C@H]2[C@H](O)[C@@H](O[C@H]3O[C@H](CO)[C@@H](O)[C@H](N)[C@H]3O)[C@H](N)C[C@@H]2N)[C@H](N)C[C@@H]1O [Tobramycin],MIC90,Strep. pneumoniae; [5],34.5 µg/mL
same,MIC90,Hemo. influenzae; [6],13.4 µg/mL
same,MIC90,P. aeruginosa; [7],20 µg/mL
same,MIC90,Staph. aureus; [8],6.3 µg/mL
same,MIC,[1]; read-out: MIC,> 8 µg/mL
same,MIC90,Staph. epidermidis; [9],56 µg/mL
